The results in this text go back to ChEMBL document CHEMBL1250451, “Mechanistic insights into a Ca2+-dependent family of alpha-mannosidases in a human gut symbiont” (Nat Chem Biol, 2010).

What all share (type): protein assay
Assay [1] concerns the target T1, Alpha-1,2-mannosidase (BT_3990) (Bacteroides thetaiotaomicron) (UniProt Q8A0N1).
T1 sequence (whole entry): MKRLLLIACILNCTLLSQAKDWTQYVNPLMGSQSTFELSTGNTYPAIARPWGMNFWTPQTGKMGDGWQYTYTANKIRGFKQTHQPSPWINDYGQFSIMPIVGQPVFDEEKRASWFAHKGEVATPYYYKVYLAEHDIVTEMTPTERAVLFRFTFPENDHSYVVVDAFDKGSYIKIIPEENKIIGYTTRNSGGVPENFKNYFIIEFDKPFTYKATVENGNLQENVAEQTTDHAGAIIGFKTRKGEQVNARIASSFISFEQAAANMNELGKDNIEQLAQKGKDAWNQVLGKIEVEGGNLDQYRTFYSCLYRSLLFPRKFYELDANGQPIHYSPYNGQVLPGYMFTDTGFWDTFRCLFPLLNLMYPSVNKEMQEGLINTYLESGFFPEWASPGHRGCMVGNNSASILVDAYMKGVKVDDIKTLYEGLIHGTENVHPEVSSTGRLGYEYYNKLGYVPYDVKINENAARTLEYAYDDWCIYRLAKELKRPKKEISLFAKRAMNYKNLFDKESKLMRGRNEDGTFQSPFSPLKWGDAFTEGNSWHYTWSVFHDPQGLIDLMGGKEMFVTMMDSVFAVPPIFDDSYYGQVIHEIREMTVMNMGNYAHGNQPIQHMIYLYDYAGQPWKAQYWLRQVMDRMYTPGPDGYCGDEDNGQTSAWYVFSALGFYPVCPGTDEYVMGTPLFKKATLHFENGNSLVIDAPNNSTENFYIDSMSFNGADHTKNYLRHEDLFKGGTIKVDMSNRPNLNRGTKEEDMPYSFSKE
The experiment in a line: Activity of Bacteroides thetaiotaomicron GH92 alpha-mannosidase 3990 assessed as recovery of enzyme activity at 1 mM in presence of 7 mM Zn(2+) ions and in presence of 5 mM EGTA in 100 mM pH 7 MOPS buffer relative to enzyme activity in presence of calcium.

Assay [2] has as its target T1, Alpha-1,2-mannosidase (BT_3990) (Bacteroides thetaiotaomicron). The experiment in a line: Activity of Bacteroides thetaiotaomicron GH92 alpha-mannosidase 3990 assessed as recovery of enzyme activity at 1 mM in presence of 7 mM Ti(3+) ions and in presence of 5 mM EGTA in 100 mM pH 7 MOPS buffer relative to enzyme activity in presence of calcium.
The target is the same in assay [3]. The experiment in a line: Activity of Bacteroides thetaiotaomicron GH92 alpha-mannosidase 3990 assessed as recovery of enzyme activity at 1 mM in presence of 7 mM Sr(2+) ions and in presence of 5 mM EGTA in 100 mM pH 7 MOPS buffer relative to enzyme activity in presence of calcium.
For assay [4] the target is unchanged. The experiment in a line: Activity of Bacteroides thetaiotaomicron GH92 alpha-mannosidase 3990 assessed as recovery of enzyme activity at 1 mM in presence of 7 mM Mg(2+) ions and in presence of 5 mM EGTA in 100 mM pH 7 MOPS buffer relative to enzyme activity in presence of calcium.
Assay [5] shares this target. The experiment in a line: Activity of Bacteroides thetaiotaomicron GH92 alpha-mannosidase 3990 assessed as recovery of enzyme activity at 1 mM in presence of 7 mM Ba(2+) ions and in presence of 5 mM EGTA in 100 mM pH 7 MOPS buffer relative to enzyme activity in presence of calcium.
In assay [6] the target is T2, Alpha-1,2-mannosidase (BT_2199) (Bacteroides thetaiotaomicron) (UniProt Q8A5N9).
T2 sequence (whole entry): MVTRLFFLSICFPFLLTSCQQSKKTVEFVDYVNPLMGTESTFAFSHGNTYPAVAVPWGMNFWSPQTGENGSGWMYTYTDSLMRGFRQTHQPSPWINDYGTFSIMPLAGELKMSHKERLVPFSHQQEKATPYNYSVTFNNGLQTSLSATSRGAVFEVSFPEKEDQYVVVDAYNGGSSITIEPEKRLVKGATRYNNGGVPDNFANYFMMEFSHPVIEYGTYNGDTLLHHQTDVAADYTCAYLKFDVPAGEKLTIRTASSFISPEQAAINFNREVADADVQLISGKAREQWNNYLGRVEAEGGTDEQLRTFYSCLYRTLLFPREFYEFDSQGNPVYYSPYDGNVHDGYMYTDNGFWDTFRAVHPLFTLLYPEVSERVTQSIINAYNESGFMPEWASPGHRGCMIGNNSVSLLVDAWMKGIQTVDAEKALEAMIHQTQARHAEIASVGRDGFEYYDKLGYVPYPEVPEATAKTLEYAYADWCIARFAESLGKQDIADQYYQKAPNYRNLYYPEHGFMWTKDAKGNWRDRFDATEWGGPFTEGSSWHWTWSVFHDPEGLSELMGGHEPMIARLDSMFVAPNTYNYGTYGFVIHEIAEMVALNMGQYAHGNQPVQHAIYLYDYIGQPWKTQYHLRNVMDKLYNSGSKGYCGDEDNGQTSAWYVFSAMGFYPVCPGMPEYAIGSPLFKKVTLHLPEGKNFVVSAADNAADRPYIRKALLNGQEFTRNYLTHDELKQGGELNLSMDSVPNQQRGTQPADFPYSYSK
The experiment in a line: Activity of Bacteroides thetaiotaomicron GH92 alpha-mannosidase 2199 assessed as recovery of enzyme activity at 1 mM in presence of 7 mM Ba(2+) ions and in presence of 5 mM EDTA in 100 mM pH 7 MOPS buffer relative to enzyme activity in presence of calcium.

Assay [7] concerns the target T1, Alpha-1,2-mannosidase (BT_3990) (Bacteroides thetaiotaomicron). The experiment in a line: Activity of Bacteroides thetaiotaomicron GH92 alpha-mannosidase 3990 assessed as recovery of enzyme activity at 1 mM in presence of 7 mM Co(2+) ions and in presence of 5 mM EGTA in 100 mM pH 7 MOPS buffer relative to enzyme activity in presence of calcium.
In assay [8] the target is T2, Alpha-1,2-mannosidase (BT_2199) (Bacteroides thetaiotaomicron). The experiment in a line: Activity of Bacteroides thetaiotaomicron GH92 alpha-mannosidase 2199 assessed as recovery of enzyme activity at 1 mM in presence of 7 mM Co(2+) ions and in presence of 5 mM EDTA in 100 mM pH 7 MOPS buffer relative to enzyme activity in presence of calcium.
Assay [9] shares this target. The experiment in a line: Activity of Bacteroides thetaiotaomicron GH92 alpha-mannosidase 2199 assessed as recovery of enzyme activity at 1 mM in absence of metal and in presence of 5 mM EDTA in 100 mM pH 7 MOPS buffer relative to enzyme activity in presence of calcium.
Assay [10] has the same target. Nature of the assay: Activity of Bacteroides thetaiotaomicron GH92 alpha-mannosidase 2199 assessed as recovery of enzyme activity at 1 mM in presence of 7 mM Sc(3+) ions and in presence of 5 mM EDTA in 100 mM pH 7 MOPS buffer relative to enzyme activity in presence of calcium.
Assay [11] deals with T1, Alpha-1,2-mannosidase (BT_3990) (Bacteroides thetaiotaomicron). Nature of the assay: Activity of Bacteroides thetaiotaomicron GH92 alpha-mannosidase 3990 assessed as recovery of enzyme activity at 1 mM in presence of 7 mM V(3+) ions and in presence of 5 mM EGTA in 100 mM pH 7 MOPS buffer relative to enzyme activity in presence of calcium.
Assay [12] deals with T2, Alpha-1,2-mannosidase (BT_2199) (Bacteroides thetaiotaomicron). Nature of the assay: Activity of Bacteroides thetaiotaomicron GH92 alpha-mannosidase 2199 assessed as recovery of enzyme activity at 1 mM relative to enzyme activity in presence of calcium.

For the molecule `O=[N+]([O-])c1ccc(O[C@H]2O[C@H](CO)[C@@H](O)[C@H](O)[C@@H]2O)cc1`, the Activity in assay [1] is 0%; in [2], 0%; in assay [3], 12%; in assay [4] it was 0%; in assay [5] it was 0%; in [6] it was 0%. The Activity was 11% in assay [7]; 7% in assay [8]; 0% in assay [9]; 0% in assay [10]; 0% in [11].

For the molecule `OC[C@H]1O[C@H](OC[C@H]2O[C@H](O)[C@@H](O)[C@@H](O)[C@@H]2O)[C@@H](O)[C@@H](O)[C@@H]1O`, the Activity in assay [12] was 63%.
